Assays:
[1] = tested on: mixed human atheroma cell culture; experiment: IFNα production (ELISA) in mixed cell type atheroma cell culture; format: cell-based; conditions: 1 μM, 24 hours
Protocol: Carotid endarterectomies from patients undergoing surgery for carotid disease were obtained at Charing Cross Hospital, London. The protocol was approved by the Research Ethics Committee RREC2989. All patients gave written informed consent, according to the Human Tissue Act 2004 (UK). Single cell suspensions of mixed cell types were obtained via enzymatic digestion and cultured for 24 hours as previously described (18).
SMC were cultured in 50 cm^2 tissue culture dishes and grown until near confluence. AthSMC and AoSMC were serum starved for 24 hours and then cultured in DMEM either alone or in the presence of 10 ng/ml IL1a, 100 ng/ml Pam3Cys, 100 ng/ml FSL-1 (Pam2CGDPKHPKSF), 25 μg/ml Poly(I:C), 100 ng/ml Lipopolysaccharide (LPS), 1 μg/ml R837 (Imiquimod) and 1 μg/ml PolyU (all purchased from Invivogen). […] The concentrations used were selected on the basis of dose-response experiments as the dose with maximal effect in absence of cell death monitored via MTT.
(§1) Cytokine production in supernatants of AthSMC and AoSMC were measured by ELISA using IL-6, IL-8 and CCL2/MCP-1 (Pharmingen, UK). IFNα was detected via a high sensitivity ELISA kit from R&D Systems. Each condition was tested in triplicate and each triplicate was analyzed separately. Concomitantly, viability was monitored with the use of 3-(4,5-dimethyl[…])-2,5-diphenyltetrazolium (MTT) (Sigma, UK).

[2] = tested on: human atheroma-derived smooth muscle cells (AthSMC); experiment: Cytokine production (ELISA) by SMC stimulated with TLR agonists for 24 hours, AthSMC compared to AoSMC; format: cell-based; conditions: 24 hours stimulation
Protocol: AthSMC were isolated from the mixed atheroma cells via magnetic cell sorting (Miltenyi, MACS), utilizing anti-CD45 (pan-leukocyte marker) and anti-CD31 (endothelial cells) antibodies coupled to microbeads. SMC expressing SMC-alpha actin composed >90% of the cells. Control AoSMC were purchased from Promocell (Germany). Both SMC types were grown in SMC medium (Promocell, Germany) and used at passage 3 consistently in all experiments. The protocols of stimulation with TLR ligands are described below.
SMC were cultured in 50 cm^2 tissue culture dishes and grown until near confluence. AthSMC and AoSMC were serum starved for 24 hours and then cultured in DMEM either alone or in the presence of 10 ng/ml IL1a, 100 ng/ml Pam3Cys, 100 ng/ml FSL-1 (Pam2CGDPKHPKSF), 25 μg/ml Poly(I:C), 100 ng/ml Lipopolysaccharide (LPS), 1 μg/ml R837 (Imiquimod) and 1 μg/ml PolyU (all purchased from Invivogen). Cells were serum starved for 24 h prior to stimulation with the indicated agonists. Supernatants were collected 24 hours after stimulation and frozen at −80° C. for batch analysis via ELISA. In the experiments performed on the mixed human atheroma cell culture, cells were cultured immediately after isolation at 10^6 cells per milliliter in RPMI containing 5% fetal bovine serum (Biosera, UK) in the presence or absence of 25 μg/ml Poly(I:C), 1 μM CpG ODN2006 and 1 μM CpG ODN2006 control (Invivogen) for 24 and 48 hours. The concentrations used were selected on the basis of dose-response experiments as the dose with maximal effect in absence of cell death monitored via MTT.
as §1

TLR8 = conditions: cited from earlier work
AthSMC and AoSMC [3] = experiment: TLR3 gene expression by Q-PCR in stimulated SMC; format: cell-based, human; conditions: 5 hours
Protocol: Alternatively, AoSMc and AthSMC were stimulated with 25 μg/ml Poly(I:C) or interferon α (IFN α) at 10 ng/mL or IFNy at 10 ng/mL. Total RNA was extracted as before and TLR3 gene expression was quantified via Q-PCR with TaqMan® Gene Expression Assays (Hs01551078_m1*; Applied Biosystems Inc.).

C57BL/6 mice = experiment: Gene expression in aortas and lymphoid tissues after chronic Poly(I:C) stimulation for 3 weeks; format: in vivo; conditions: chronic stimulation 3 weeks
Excerpt: FIG. 10 Gene expression of anti-inflammatory factors is increased in aortas and lymphoid tissues in C57BL/6 mice treated with Poly(I:C) Aortas, spleens and para-aortic lymph nodes (PALN) of C57BL/6 mice that underwent carotid artery injury and PBS or Poly(I:C) treatment were collected at sacrifice. RNA was extracted and gene expression of CCL5, IFNβ, PD-L1, PD-L2, and IL-10 in the aorta (A), spleen (B) and PALN(C) was examined by RT-PCR. Bars show overall mean±SEM (n=4 mice per group, *p<0.05, **p<0.01 PBS v. Poly(I:C); unpaired student's t-test). Abbreviations: IFNβ: Interferon beta, IL-10: Interleukin-10, PD-L1: programmed death-ligand 1, PD-L2: programmed death-ligand 2.
(§2) At 22 weeks of age, male C57BL/6 and TLR3^−/− mice were anesthetized with isofluorane by inhalation, the left carotid artery dissected and a non-occlusive tygon collar (length 2.5 mm; internal bore diameter, 510 μm, Cole-Parmer, London, UK) placed around the carotid artery. Mice received 250 μg Poly(I:C) (Sigma, Dorset, UK) or PBS intraperitoneally on alternate days for a total of 8 doses starting 4 days after surgery. Twenty-one days following collar placement, mice were euthanized, and neointima development and the presence of elastic lamina breaks were assessed as described below.
(§3) Total RNA was isolated from murine tissues using the Qiagen RNeasy kit (Qiagen, Crawley, UK) according to the manufacturer's instructions. Total RNA was treated with DNase I and reverse-transcribed to cDNA using M-MLV Reverse Transcriptase RNase H-, Point Mutant (Promega, UK) and oligo(dT) primer. RT-PCR was performed using TaqMan Gene Expression Assays (CCL5 (Mm01302427_m1), VCAM1 (Mm01320970_m1), CCL2 (Mm00441242_m1), TLR3 (Mm01207403_m1), IL-10 (Mm01288386_m1), PD-L1 (Mm00452054_m1*), PD-L2 (Mm00451734_m1*) IFNβ (Mm00439552_s1*), (Applied Biosystems) and TaqMan universal PCR Master Mix (Applied Biosystems) on a 7900HT Fast Real-Time PCR System (Applied BioSystems). PCR amplification was carried out for 40 cycles. Samples were normalized to β-actin. The 2-ΔΔCt method was used to analyze the relative changes in gene expression.

AthSMC and AoSMC [4] = experiment: Atherosclerosis RT2 Profiler PCR Array gene expression in SMC stimulated with Poly(I:C) for 5 hours; format: cell-based, human; conditions: 25 μg/ml
Protocol: SMCs were plated in 9.6 cm^2 dishes and grown until near confluence. SMCs were serum starved for 24 h prior to stimulation with 25 μg/ml Poly(I:C) for 5 hours. Total cellular RNA was extracted from SMC using RNeasy® Mini Kit (Qiagen) according to the manufacturer's instructions. To remove any residual genomic DNA, RNA samples were treated with DNase (TurboDNase, Ambion) according to manufacturer's instructions. RNA was reverse transcribed to cDNA using M-MLV Reverse Transcriptase (Promega, UK). Quantitative PCR (QPCR) analysis of 84 atherosclerosis related genes was performed using Atherosclerosis RT2 Profiler PCR Arrays (SA Bioscience Corporation, USA) as per the manufacturer's protocol. The complete list of the genes analyzed is available online at http://www.sabiosciences.com/rt_per_product/HTML/PAHS-038A.html. RT2 Profiler PCR arrays were run on an ABI 7900HT machine (Applied Biosystems). Duplicate arrays were run per condition for unstimulated and Poly (I:C)-stimulated AoSMC and AthSMC. Data analysis was performed using the manufacturer's integrated web-based software package for the PCR Array System using Ct based fold-change calculations.

C57BL/6 and TLR3−/− mice = experiment: Perivascular collar injury: neointima formation (intima/media ratio); format: in vivo
Protocol: as §2
Twenty days following collar placement, mice were euthanized, terminal blood collected via cardiac puncture and the vasculature perfused with 0.9% saline. Injured carotids were dissected out and frozen at −80° C. in Optimal cutting temperature (OCT) compound (ThermoScientific, Runcorn, UK). Sham-operated contralateral arteries were used as controls. Mice were fed regular chow throughout the duration of the experiment.
For the injured carotid artery, serial 5 μm cryosections were taken of the carotid tissue distal to the collar. Five sections were collected on each slide and 15 to 25 slides were collected per arterial segment. The first five alternate slides were stained with Accustain elastic stain kit (Sigma) according to manufacturer's instructions. Measurement of lesion and vessel areas was performed on one section per stained slide using ProgRes CapturePro image analysis software (version 2.5.2.0, Jenoptik, Germany). The area between the internal and external elastic […] was taken as the medial area and the intimal area was calculated by subtracting the lumen area from the internal elastic lamina area. The intimal medial ratio (IMR) was then calculated by dividing the intimal area by the medial area. The IMR measurements were then averaged for each mouse.

[5] = tested on: C57BL/6, ApoE−/− and TLR3−/− mice; experiment: Vascular gene expression (quantitative RT-PCR) 24 hours after a single i.p. dose of Poly(I:C); format: in vivo
Protocol: FIG. 2 Aortic gene expression of both pro- and anti-inflammatory factors is induced by Poly(I:C) stimulation. 10- and 30-week old C57BL/6, ApoE−/− and TLR3−/− mice were stimulated with PBS or 250 μg Poly(I:C) in PBS. 24 hours post-stimulation, mice were sacrificed, aortas harvested and RNA extracted. Gene expression of CCL5 (A), IL-10 (B), VCAM-1 (C) and IFNβ (D) was examined by quantitative RT-PCR. Bars show overall mean±SEM (n=3-5 mice per group; *p<0.05, **p<0.01, ***p<0.001 PBS v. Poly(I:C); unpaired student's t-test).
as §3

TLR3−/− mice = experiment: Perivascular collar injury: elastic lamina breaks; format: in vivo; conditions: systemic administration 250 μg i.p.
Protocol: as §2
Elastin-stained slides were also used to assess the integrity of the elastic laminae. The portion of the carotid artery distal to the collar (the same as used for neointima assessment) was divided into 5 segments and representative sections from each segment were evaluated for the presence of interruptions in the elastic lamina. The width of any observed break was measured by drawing a line between the start and end of a break in the external elastic lamina using ProgRes CapturePro image analysis software (version 2.5.2.0, Jenoptik). The width of any elastic lamina break was calculated as the mean width of break across all sections examined for each mouse. […]

[6] = Poly(I:C) 25 μg/ml, FSL-1 100 ng/ml
[7] = single dose 250 μg i.p., 24 hours

CpG ODN2006
IFNα production [1]: Type I interferons are produced in the mixed cell culture population in response to TLR9 stimulation

FSL-1
IL-6 expression, AthSMC compared to AoSMC [2, 6]: enhanced response | IL-8 expression, AthSMC compared to AoSMC [2, 6]: enhanced response

CCCCNc1nc(N)c2[nH]c(=O)n(Cc3ccc(C(=O)NCC(=O)O)cc3)c2n1 [CL264]
TLR8 activation / stimulation (TLR8; CL264: even at high concentrations (>10 mg/ml)): does not stimulate TLR8

IFNα
TLR3 gene expression (AthSMC and AoSMC [3]; AoSMC and AthSMC, IFN 10 ng/mL): able to increase the expression of TLR3

CCCc1nc2c(N)nc3ccccc3c2s1 [CL075]
Agonist strength for TLR8 relative to TLR7 (TLR8): ~10 ×

Polyriboinosinic-polycytidylic acid [Poly(I:C)]
Expression of CCL5 in the aorta (C57BL/6 mice): significantly increased | Expression of IFNβ in the aorta (C57BL/6 mice): significantly increased | Expression of IFNβ mRNA in the spleen (C57BL/6 mice): induced | Expression of IL10 in the aorta (C57BL/6 mice): significantly increased | Gene expression of PD-L1 in the para-aortic lymph nodes (C57BL/6 mice): induced | Gene expression of PD-L2 in the para-aortic lymph nodes (C57BL/6 mice): induced | TLR3 dependent response in AthSMC compared to AoSMC (fold change in IL-6 production, FIG. 1B) ([2]; 25 μg/ml): over 40 fold | CCL2/MCP-1 expression, AthSMC compared to AoSMC [2, 6]: enhanced expression | IL-6 expression, AthSMC compared to AoSMC [2, 6]: enhanced expression | IL-8 expression, AthSMC compared to AoSMC [2, 6]: enhanced expression | TLR3 gene expression (AthSMC and AoSMC [3]; AoSMC, 25 μg/ml): not in AoSMC | TLR3 gene expression (AthSMC and AoSMC [3]; AthSMC, 25 μg/ml): able to upregulate the expression of TLR3 | Expression of selected genes of inflammatory cell recruitment (e.g. VCAM1, CCL5) and regulation of inflammation (e.g. A20, BIRC3/cIAP) (AthSMC and AoSMC [4]): significantly increased the expression | Neointima formation, intima/media ratio, compared to vehicle (C57BL/6 and TLR3−/− mice; C57BL/6 mice, 250 μg i.p., 21 days after injury, p<0.001): significantly reduced | Protection against neointima formation (C57BL/6 and TLR3−/− mice; TLR3−/− mice, 250 μg i.p., p>0.05): ablated | End-weight of mice (C57BL/6 and TLR3−/− mice; all groups, Poly(I:C) or vehicle): No difference | Gene induction in aorta of ApoE−/− mice with advanced disease compared to young ApoE−/− ([5]; 30-week vs 10-week old ApoE−/− mice): more pronounced | Gene induction in carotid artery tissue compared to aorta ([5]; CCL5, CCL2, VCAM1, single dose 250 μg): even more marked | Expression of the induced genes in TLR3−/− mice ([5]; TLR3−/− mice, single dose 250 μg): almost abrogated | A20 induction ([5]; mice, single dose 250 μg i.p.): A20 induction was not observed | Aortic expression of CCL2/MCP-1 [5, 7]: induced the aortic expression | Aortic expression of CCL5/RANTES [5, 7]: induced the aortic expression | Aortic expression of IFNβ [5, 7]: induced the aortic expression | Aortic expression of IL-10 [5, 7]: induced the aortic expression | Aortic expression of PD-L2 [5, 7]: induced the aortic expression | Aortic expression of VCAM-1 [5, 7]: induced the aortic expression | TLR3 gene expression in vascular tissues (aorta, carotid arteries) ([5]; single dose 250 μg, 24 hours): up-regulated TLR3 gene expression | Elastic lamina breaks (frequency, depth and width) (TLR3−/− mice): reduced the frequency, depth and width of the elastic lamina breaks

From patent US20140005255A1, “Agonists Of Toll Like Receptor For Treating Cardiovasuclar Disease And Obesity” (priority 2010, published 2014)
